Source: patent US12240862B2, “Inhibitors of peptidylarginine deiminases” (Gilead Sciences, Inc., priority 2020, dated 2025)

target: T1, human PAD4 (Homo sapiens, UniProt Q9UM07); experiment: In vitro PAD4 BAEE biochemical assay; settings: human PAD4, BAEE substrate; 5 nM PAD4, 2 mM calcium chloride, 3 mM BAEE; geometric mean of multiple experiments
T1 construct: human PAD4 (NM_012387), A2P663, was PCR amplified; His-SUMO (N, cleaved yes); made in house; host or cells: E. coli BL21(DE3)
Summary of the method: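 Ammonia generated from BAEE serves as the readout, measured by o-phthalaldehyde after EDTA termination. Final conditions: 5 nM human PAD4 (SUMO tag cleaved), 2 mM CaCl2, 3 mM BAEE, pH 7.6 MOPS buffer, 25 °C for 2 h following a 30-min compound preincubation.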

T1 sequence (Q9UM07 2-663): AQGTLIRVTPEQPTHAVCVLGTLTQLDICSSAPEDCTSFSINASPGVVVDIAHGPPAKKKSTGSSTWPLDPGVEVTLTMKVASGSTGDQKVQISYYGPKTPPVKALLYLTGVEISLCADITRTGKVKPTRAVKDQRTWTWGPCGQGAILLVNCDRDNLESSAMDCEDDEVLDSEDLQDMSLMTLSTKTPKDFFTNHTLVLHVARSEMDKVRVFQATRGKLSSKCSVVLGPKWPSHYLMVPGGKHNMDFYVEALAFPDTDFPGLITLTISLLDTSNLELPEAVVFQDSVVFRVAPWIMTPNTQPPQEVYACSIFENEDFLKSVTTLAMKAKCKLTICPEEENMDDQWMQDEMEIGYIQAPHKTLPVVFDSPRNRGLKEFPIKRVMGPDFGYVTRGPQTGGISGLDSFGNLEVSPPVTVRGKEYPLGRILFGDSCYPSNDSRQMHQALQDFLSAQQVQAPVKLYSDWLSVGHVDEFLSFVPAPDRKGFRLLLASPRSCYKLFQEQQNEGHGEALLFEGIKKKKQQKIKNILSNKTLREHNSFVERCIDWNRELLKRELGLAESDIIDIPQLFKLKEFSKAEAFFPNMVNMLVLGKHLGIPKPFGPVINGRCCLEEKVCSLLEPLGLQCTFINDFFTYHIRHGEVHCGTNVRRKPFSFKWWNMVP

Row | IC50 [nM] | Structure (SMILES)
1 | 888 | COc1cc(C(=O)N2CC[C@H]3OCCN[C@H]3C2)cc2nc(-c3cc4ccc(N(C(F)F)S(C)(=O)=O)nc4n3CC3CC3)c(C3CC3)n12 [Example 384, ~{N}-[2-[7-[(4~{a}~{S},8~{a}~{R})-2,3,4,4~{a},5,7,8,8~{a}-octahydropyrido[4,3-b][1,4]oxazine-6-carbonyl]-3-cyclopropyl-5-methoxyimidazo[1,2-a]pyridin-2-yl]-1-(cyclopropylmethyl)pyrrolo [2,3-b]pyridin-6-yl]-~{N}-(difluoromethyl) methanesulfonamide]
2 | 50.2 | COc1cc(C(=O)N2[C@H]3CC[C@@H]2[C@H](N)C3)cc2nc(-c3cc4ccc([C@@H](C)NC(=O)N5CCCC5)nc4n3CC3CC3)c(C)n12 [Example 251, N—((R)-1-(2-(7-((1R,2R,4S)-2-amino-7-azabicyclo[2.2.1]heptane-7-carbonyl)-5-methoxy-3-methylimidazo[1,2-a]pyridin-2-yl)-1-(cyclopropylmethyl)-1H-pyrrolo[2,3-b]pyridin-6-yl)ethyl)pyrrolidine-1-carboxamide]
3 | 134 | COc1cc(C(=O)N2[C@H]3CC[C@@H]2[C@H](N)C3)cc2nc(-c3cc4ccc(C5CCN(C(C)=O)C5)nc4n3CC3CC3)c(C)n12 (some centres unmarked) [Example 531]
4 | 851 | COc1cc(C(=O)N2[C@H]3CC[C@@H]2[C@H](N)C3)cc2nc(-c3cc4ccc(N(C(F)F)S(C)(=O)=O)nc4n3CC3CC3)c(CC(C)C)n12 [Example 429, ~{N}-[2-[7-[(1~{R},2~{R}, 4~{S})-2-amino-7-azabicyclo[2.2.1]heptane-7-carbonyl]-5-methoxy-3-(2-methylpropyl)imidazo[1,2-a]pyridin-2-yl]-1-(cyclopropylmethyl)pyrrolo [2,3-b]pyridin-6-yl]-~{N}-(difluoromethyl) methanesulfonamide]
5 | 33.4 | COc1cc(C(=O)N2[C@H]3CC[C@@H]2[C@H](N)C3)cc2nc(-c3cc4ccc([C@@H](C)NC(=O)c5cnco5)nc4n3CC3CC3)c(C)n12 [Example 117, ~{N}-[(1~{R})-1-[2-[7-[(1~{R},2~{R},4~{S})-2-amino-7-azabicyclo[2.2.1]heptane-7-carbonyl]-5-methoxy-3-methylimidazo [1,2-a]pyridin-2-yl]-1-(cyclopropylmethyl)pyrrolo [2,3-b]pyridin-6-yl]ethyl]-1,3-oxazole-5-carboxamide]
6 | 38400 | COc1cc(C(=O)NC[C@@H]2CCCCN2)cc2nc(-c3cc4ccc(N(C(F)F)S(C)(=O)=O)nc4n3CC3CC3)c(C)n12 [Example 294, 2-[1-(cyclopropylmethyl)-6-[difluoromethyl (methylsulfonyl)amino]pyrrolo[2,3-b]pyridin-2-yl]-5-methoxy-3-methyl-~ {N}-[[(2~{S})-piperidin-2-yl]methyl]imidazo[1,2-a]pyridine-7-carboxamide]
7 | 34.4 | COc1cc(C(=O)N2[C@H]3CC[C@@H]2[C@H](N)C3)cc2nc(-c3cc4ccc([C@@H](C)NC(=O)c5ccc(Cl)nc5)nc4n3CC3CC3)c(C)n12 [Example 48, ~{N}-[(1~{R})-1-[2-[7-[(1~{R},2~{R},4~{S})-2-amino-7-azabicyclo[2.2.1]heptane-7-carbonyl]-5-methoxy-3-methylimidazo [1,2-a]pyridin-2-yl]-1-(cyclopropylmethyl)pyrrolo[2,3-b]pyridin-6-yl]ethyl]-6-chloropyridine-3-carboxamide]
8 | 1420 | COc1cc(C(=O)N2[C@@H]3CCC[C@H]2[C@@H](N)C3)cc2nc(-c3cc4ccc(N(C(F)F)S(C)(=O)=O)nc4n3CC3CC3)c(C)n12 [Example 331, N-[2-[7-[(1R,5S,6S)-6-amino-8-azabicyclo[3.2.1]octane-8-carbonyl]-5-methoxy-3-methyl-imidazo [1,2-a]pyridin-2-yl]-1-(cyclopropylmethyl)pyrrolo [2,3-b]pyridin-6-yl]-N-(difluoromethyl) methanesulfonamide]
9 | 108 | COc1cc(C(=O)N2[C@H]3CC[C@@H]2[C@H](N)C3)cc2nc(-c3cc4ccc([C@@H](C)NC(=O)c5ccccc5C)nc4n3CC3CC3)c(C)n12 [Example 121, ~{N}-[(1~{R})-1-[2-[7-[(1~{R},2~{R},4~{S})-2-amino-7-azabicyclo[2.2.1]heptane-7-carbonyl]-5-methoxy-3-methylimidazo [1,2-a]pyridin-2-yl]-1-(cyclopropylmethyl)pyrrolo [2,3-b]pyridin-6-yl]ethyl]-2-methylbenzamide]
10 | 18000 | Cc1c(-c2cc3ccc(N(C(F)F)S(C)(=O)=O)nc3n2CC2CC2)nc2cc(C(=O)N3CCC[C@@H](N)C3)cc([S+](C)[O-])n12 (some centres unmarked) [Example 424, ~{N}-[2-[7-[(3~{R})-3-aminopiperidine-1-carbonyl]-3-methyl-5-methylsulfinylimidazo[1,2-a]pyridin-2-yl]-1-(cyclopropylmethyl)pyrrolo [2,3-b]pyridin-6-yl]-~{N}-(difluoromethyl) methanesulfonamide]
11 | 30.6 | COc1cc(C(=O)N2[C@H]3CC[C@@H]2[C@H](N)C3)cc2nc(-c3cc4ccc([C@@H](C)NC(=O)C5(O)CC5)nc4n3CC3CC3)c(C)n12 [Example 97, ~{N}-[(1~{R})-1-[2-[7-[(1~{R},2~{R},4~{S})-2-amino-7-azabicyclo[2.2.1]heptane-7-carbonyl]-5-methoxy-3-methylimidazo [1,2-a]pyridin-2-yl]-1-(cyclopropylmethyl)pyrrolo [2,3-b]pyridin-6-yl]ethyl]-1-hydroxycyclopropane-1-carboxamide]
12 | 57.8 | COc1cc(C(=O)N2[C@H]3CC[C@@H]2[C@H](N)C3)cc2nc(-c3cc4ccc([C@@H](C)NC(=O)C(C)(C)CO)nc4n3CC3CC3)c(C3CC3)n12 [Example 86, ~{N}-[(1~{R})-1-[2-[7-[(1~{R},2~{R},4~{S})-2-amino-7-azabicyclo[2.2.1]heptane-7-carbonyl]-3-cyclopropyl-5-methoxyimidazo [1,2-a]pyridin-2-yl]-1-(cyclopropylmethyl)pyrrolo [2,3-b]pyridin-6-yl]ethyl]-3-hydroxy-2,2-dimethylpropanamide]
13 | 13600 | COc1cc(C(=O)N2C[C@H]3CC[C@@H]2[C@H](N)C3)cc2nc(-c3cc4ccc(N(C(F)F)S(C)(=O)=O)nc4n3CC3CC3)c(C)n12 (single isomer, unassigned) [Example 369, ~{N}-[2-[7-[(1~{S},4~{R}, 6~{R})-6-amino-2-azabicyclo[2.2.2]octane-2-carbonyl]-5-methoxy-3-methylimidazo[1,2-a]pyridin-2-yl]-1-(cyclopropylmethyl)pyrrolo [2,3-b]pyridin-6-yl]-~{N}-(difluoromethyl) methanesulfonamide]
14 | 225 | COC(=O)N[C@H](C)c1ccc2cc(-c3nc4cc(C(=O)N5CCC[C@@H](N)C5)cc(OC)n4c3C)n(CC3CC3)c2n1 [Example 258]
15 | 250 | COc1cc(C(=O)N2[C@H]3CC[C@@H]2[C@H](N)C3)cc2nc(-c3cc4ccc(N5C(=O)CCCC5C)nc4n3CC3CC3)c(C)n12 (some centres unmarked) [Example 456, 1-[2-[7-[(1~{R},2~{R}, 4~{S})-2-amino-7-azabicyclo[2.2.1]heptane-7-carbonyl]-5-methoxy-3-methylimidazo[1,2-a]pyridin-2-yl]-1-(cyclopropylmethyl)pyrrolo[2,3-b]pyridin-6-yl]-6-methylpiperidin-2-one]
16 | 28.6 | COc1cc(C(=O)N2[C@H]3CC[C@@H]2[C@H](N)C3)cc2nc(-c3cc4ccc([C@@H](C)NC(=O)c5cnc(C)o5)nc4n3CC3CC3)c(C)n12 [Example 80, ~{N}-[(1~{R})-1-[2-[7-[(1~{R},2~{R},4~{S})-2-amino-7-azabicyclo[2.2.1]heptane-7-carbonyl]-5-methoxy-3-methylimidazo [1,2-a]pyridin-2-yl]-1-(cyclopropylmethyl)pyrrolo [2,3-b]pyridin-6-yl]ethyl]-2-methyl-1,3-oxazole-5-carboxamide]
17 | 404 | COc1cc(C(=O)N2C[C@H]3CC[C@@H]2[C@H](N)C3)cc2nc(-c3cc4ccc(N(C(F)F)S(C)(=O)=O)nc4n3CC3CC3)c(C)n12 [Example 376, ~{N}-[2-[7-[(1~{R},4~{S}, 6~{R})-6-amino-2-azabicyclo[2.2.2]octane-2-carbonyl]-5-methoxy-3-methylimidazo[1,2-a]pyridin-2-yl]-1-(cyclopropylmethyl)pyrrolo [2,3-b]pyridin-6-yl]-~{N}-(difluoromethyl) methanesulfonamide]
18 | 58.6 | CNC(=O)CC(C)(C)c1ccc2cc(-c3nc4cc(C(=O)N5[C@H]6CC[C@@H]5[C@H](N)C6)cc(OC)n4c3C)n(CC3CC3)c2n1 [Example 539, 3-[2-[7-[(1~{R},2~{R}, 4~{S})-2-amino-7-azabicyclo[2.2.1]heptane-7-carbonyl]-5-methoxy-3-methylimidazo[1,2-a]pyridin-2-yl]-1-(cyclopropylmethyl)pyrrolo[2,3-b]pyridin-6-yl]-~{N},3-dimethylbutanamide]
19 | 108 | COc1cc(C(=O)N2[C@H]3CC[C@@H]2[C@H](N)C3)cc2nc(-c3cc4ccc(C(C)CN5CCOCC5)nc4n3CC3CC3)c(C)n12 (some centres unmarked) [Example 543, [(1~{R},2~{R},4~{S})-2-amino-7-azabicyclo [2.2.1]heptan-7-yl]-[2-[1-(cyclopropylmethyl)-6-(1-morpholin-4-ylpropan-2-yl)pyrrolo[2,3-b]pyridin-2-yl]-5-methoxy-3-methylimidazo [1,2-a]pyridin-7-yl] methanone]
20 | 170 | CCc1ccc2cc(-c3nc4cc(C(=O)N5[C@H]6CC[C@@H]5[C@H](N)C6)cc(OC)n4c3C)n(CCC3CC3)c2n1 [Example 505, [(1~{R},2~{R},4~{S})-2-amino-7-azabicyclo [2.2.1]heptan-7-yl]-[2-[1-(2-cyclopropylethyl)-6-ethylpyrrolo[2,3-b]pyridin-2-yl]-5-methoxy-3-methylimidazo[1,2-a]pyridin-7-yl]methanone]
